Data as given in ChEMBL document CHEMBL3046535, “Evaluation of some weed control treatments for long season weed control in maize (Zea mays L.) under zero and minimum tillage at Samaru, in Nigeria” (Crop Prot, 2008).

Tests used:
Type in all cases: organism-based
Zea mays [1] = assay: Toxicity in Zea mays TZBSR (maize) assessed as crop injury at 1.5 kg a.i/ha applied post-emergence after ridgining at minimum tillage conditions using Knapsack sprayer; details: in vivo, other
Zea mays [2] = assay: Toxicity in Zea mays TZBSR (maize) assessed as plant height at 1.5 kg a.i/ha applied post-emergence after ridgining at minimum tillage conditions using Knapsack sprayer measured 9 weeks post treatment; details: in vivo, other, 1512 h
Zea mays [3] = assay: Toxicity in Zea mays TZBSR (maize) assessed as crop vigour at 1.5 kg a.i/ha applied post-emergence after ridgining at minimum tillage conditions using Knapsack sprayer; details: in vivo, other
Zea mays [4] = assay: Toxicity in Zea mays TZBSR (maize) assessed as crop stand count at 1.5 kg a.i/ha applied post-emergence after ridgining at minimum tillage conditions using Knapsack sprayer measured 6 weeks post treatment; details: in vivo, other, 1008 h

SMILES | Activity (Zea mays [1]) | Activity (Zea mays [2]) | Activity (Zea mays [3]) | Activity (Zea mays [4])
CCNc1nc(Cl)nc(NC(C)C)n1 [ATRAZINE] | Non-toxic | 3.35 m | Non-toxic | –
O=C(O)COc1ccc(Cl)cc1Cl [2,4-DICHLOROPHENOXYACETIC ACID] | Non-toxic | 3.33 m | Non-toxic | Non-toxic
